# Assay results reported in patent US5776892A, “Anti-inflammatory peptides” (Curative Health Services, Inc., priority 1994, dated 1998).
# Read-outs that look alike come from different tables or passages of the source. No end group written: not given here.
# How the values were obtained:
# [1] = tested on: myeloperoxidase activity in mouse ear; assay: Myeloperoxidase activity in AA-treated mouse ear tissue (PMN marker); format: in vivo; details: Table II
# Protocol: Myeloperoxidase activity in ear tissue was measured as a marker for the presence or absence of polymorphonuclear leukocytes (PMNs) (Barone et al., 1991, J. Neurosci. Res. 29:336-345). After measurement of ear thickness, ears were dissected from the mice and homogenized in 50 mM Tris-HCL, pH 7.4 at 4° C. to give a 10% (w/v) homogenate. Aliquots of the homogenate were used to determine the amount of myeloperoxidase activity present in the tissue using o-dianisidine (Sigma Chem Co., St. Louis Mo.) and hydrogen peroxide as substrates and monitoring chromophore generation at 460 nm (Barone et al., 1991, J. Neurosci. Res. 29:336-345).
# [2] = tested on: type-II collagen-induced arthritis; format: in vivo, mouse
# Protocol: Mice (DBA/1, 10-12 weeks old, Jackson Laboratories) were randomly assigned to one of 3 groups […]. CT-112 (SEQ. ID NO: 1) was prepared for injection by dissolving in sterile PBS. CT-112 (SEQ. ID NO: 1) was administered daily according to the following schedule: a) Control animals (0.1 ml of sterile PBS) (7 mice); b) Low dose CT-112 (0.1 ml sterile PBS containing 0.25 mg CT-112 at 10 mg/kg) (8 mice); and c) High dose CT-112 (0.1 ml sterile PBS containing 2.5 mg of CT-112 at 100 mg/kg) (8 mice). Three days after initial dosing with CT-112 (SEQ. ID NO: 1), all mice were injected intradermally at the base of the tail with 100 μg of bovine type-II collagen in Freund's complete adjuvant. Mice were monitored daily for the onset of disease, and weighed twice weekly with overall health status noted. Arthritis-affected animals were clinically assessed 5 times per week until 10 weeks post-immunization. Paw measurements were taken 3 times per week. Mice lacking signs of arthritis 10 weeks post-immunizationwere considered disease-free. All mice were pre-bled prior to the start of the trial, subsequently again at 2 and 4 weeks post-immunization, again at the onset of CIA, and finally at the termination of the study. Sera were separated and stored at -80° C. ELISA assays were performed to determine anti-collagen antibody concentrations. Spleen and lymph nodes were removed at sacrifice, and single cell suspensions prepared therefrom. Mitogen responses to Con A and LPS, as well as antigen-specific responses to type-II collagen, were determined. Appropriate statistical comparisons (Chi square, Student's T-test and non-parametric median comparisons) were performed using SPSS/PC software to assess the influence of CT-112 (SEQ. ID NO: 1) at both low and high doses on the incidence, onset, severity and progression of collagen-induced arthritis, the antibody response to collagen, T-cell and B-cell mitogen responses, and T-cell specific responses to type-II collagen.
# neutrophils [3] = assay: Neutrophil chemotaxis to interleukin-8; format: cell-based; details: 15 min pre-exposure; read at 1 hr; FIG. 5
# Protocol: (§1) The ability of CT-112 (SEQ. ID NO: 1) to inhibit chemotaxis of neutrophils in response to a variety of agents was assessed using Neuroprobe chemotaxis chambers. For these assays, neutrophils were resuspended in Hank's balanced salt solution with Ca^2+ and Mg^2+ to give a 5×10^6 cells/ml suspension after the cells were labeled with 1',7'-bis(2-carboxyethyl)-5-(6)-carboxyfluorescein. The neutrophils were exposed to CT-112 (SEQ. ID NO: 1) for approximately 15 min prior to addition to the chemotaxis chambers. CT-112 (SEQ. ID NO: 1) was present in both the top and bottom of the chambers, and the chemoattractant, either f-Met-Leu-Phe, leukotriene B4 or interleukin-8, was added to the bottom of chamber. Cells which had migrated through the membrane were determined by fluorescence at 530 nm at 1 hr after initiation of the assay.
# [4] = tested on: carrageenan-induced peritonitis; assay: Carrageenan-induced peritonitis, inflammatory cell influx in peritoneal lavage; format: in vivo, mouse; details: 60 mg/kg/day minipump
# Protocol: Mice (C57BL/6UAF, females, 12 weeks old) were implanted with Alzet mini pumps set to deliver 60 mg CT-112/kg/day. Six days post-implantation, the mice were challenged with an intraperitoneal injection of 0.3 ml of carrageenan in PBS (10 mg/ml). The peritoneal cavity was lavaged with 15 ml of Hank's Balanced Salt Solution (Ca^2+ - and Mg^2+ -free) at 24, 48 and 72 hr post-challenge. The lavage fluid was centrifuged (500 g, 5 min), fixed with LeukoStat fixative and stained with LeukoStat staining solution. The slides were analyzed under a microscope for the different types of inflammatory cells, such as macrophages, lymphocytes and neutrophils. At the 48-hr time point, 5 control mice were also lavaged.
# neutrophils [5] = assay: Neutrophil chemotaxis to leukotriene B4; format: cell-based; details: 15 min pre-exposure; read at 1 hr; FIG. 4
# Protocol: as §1
sequence,measurement,setting,value
"TTSQVRPR [CT-112, octapeptide derived from platelet factor 4]",Myeloperoxidase Activity,[1]; 0.05 mg/animal/day minipump,19.6 ± 15.6 μmole of chromophore formed/mi
same,Myeloperoxidase Activity,[1]; 0.1 mg/animal/day minipump,17.0 ± 9.6 μmole of chromophore formed/mi
same,Myeloperoxidase Activity,[1]; 1.0 mg/animal/day minipump,14.7 ± 13.3 μmole of chromophore formed/mi
same,anti-collagen antibody reduction in serum,"[2]; 4 wks post-immunization, high dose group, p=0.028, FIG. 14",statistically significant
same,effects on synovitis and pannus (histopathology),"[2]; both high and low doses, FIG. 13",not significant
same,disease-induced loss of joint architecture (histopathology),"[2]; both high and low doses, p≤0.05, FIG. 13",significantly reducing
same,spleen cell response to Con A and to LPS,[2]; cells from treated mice,neither immunosuppression nor immunoactivation
same,final incidence of CIA,"[2]; high dose, 100 mg/kg daily",50%
same,Maximum paw swelling,[2]; low and high dose,not influenced
same,final incidence of CIA,"[2]; low dose, 10 mg/kg daily",62.5%
same,involved paws in remission at the conclusion of the trial,"[2]; low dose, 10 mg/kg daily",25%
same,number of involved paws,"[2]; low dose, 10 mg/kg daily, p=0.035 vs control, FIG. 11",significantly fewer paws
same,chemotactic migration of neutrophils to interleukin-8,neutrophils [3],not to interleukin-8
same,"Absolute Cell Number, Lymphocytes",[4]; 24 hr post carrageenan,16.9 ± 5.9
same,"Absolute Cell Number, Macrophages",[4]; 24 hr post carrageenan,19.5 ± 10
same,"Absolute Cell Number, Neutrophils",[4]; 24 hr post carrageenan,106 ± 29
same,"Absolute Cell Number, Lymphocytes",[4]; 48 hr post carrageenan,12.5 ± 7.6
same,"Absolute Cell Number, Macrophages",[4]; 48 hr post carrageenan,126 ± 43
same,"Absolute Cell Number, Neutrophils",[4]; 48 hr post carrageenan,134 ± 77
same,"Absolute Cell Number, Lymphocytes",[4]; 72 hr post carrageenan,45.1 ± 42
same,"Absolute Cell Number, Macrophages",[4]; 72 hr post carrageenan,255 ± 125
same,"Absolute Cell Number, Neutrophils",[4]; 72 hr post carrageenan,48.4 ± 28
same,chemotactic migration of neutrophils to LTB4,neutrophils [5],effectively inhibited
